Each block holds one molecule with its values, some of them ahead of it.
Legend:
human HDC = biological target: T1, human HDC (Homo sapiens, UniProt P19113); assay: Histidine decarboxylase fluorescence polarization standard assay; format: biochemical; settings: standard assay: 30 nM HDC, 600 μM histidine, 90 minutes at 37° C.; read-out: IC50 for inhibition of HDC
T1 construct: containing the first 1431 bases (amino acid residues 1-477) of HDC; made in house; host or cells: Sf9 insect cells (baculovirus, pDEST 20)
T1 sequence (P19113 1-477 S148Q): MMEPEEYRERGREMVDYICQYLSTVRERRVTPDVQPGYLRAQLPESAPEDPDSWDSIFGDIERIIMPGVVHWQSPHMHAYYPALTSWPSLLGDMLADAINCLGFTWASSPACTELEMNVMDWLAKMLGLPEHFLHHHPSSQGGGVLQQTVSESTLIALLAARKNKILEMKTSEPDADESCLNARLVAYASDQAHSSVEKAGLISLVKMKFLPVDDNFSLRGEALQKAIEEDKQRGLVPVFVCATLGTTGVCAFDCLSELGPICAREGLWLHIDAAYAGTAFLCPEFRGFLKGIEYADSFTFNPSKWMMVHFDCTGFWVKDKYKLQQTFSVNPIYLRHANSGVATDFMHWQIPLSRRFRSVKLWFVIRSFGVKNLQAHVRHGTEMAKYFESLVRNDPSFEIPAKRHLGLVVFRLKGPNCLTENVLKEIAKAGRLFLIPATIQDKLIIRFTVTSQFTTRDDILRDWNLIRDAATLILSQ
Experimental: (§1) In the standard assay, HDC, diluted to 90 nM in HDC Buffer plus 0.9 mM DTT and 99 μM PLP, was added to a black opaque 384-well plate in 20 μL. Test compound in HDC Buffer plus 6% DMSO or buffer alone was added to the plate in 10 μL. 36 nM FITC-histidine and 3.6 mM histidine were combined in FP Buffer and transferred to the plate in 10 μL. Finally, 90 nM […] antibody was added in 20 μL of FP Buffer. Thus, the final concentrations in the assay were: HDC 30 nM, FITC-histidine 6 nM, histidine 600 μM, anti-histamine antibody 30 nM, DMSO 1%. The plate was incubated at 37° C. for 90 minutes. The fluorescence polarization signal was read on an LJL Analyst (Molecular Devices, Sunnyvale, Calif.) with excitation at 485 nm, emission at 530 nm, a fluorescein dichroic mirror at 505 nm and G factor set to 1. A 96-well plate version of the assay, used in assay development, was performed as described above with twice the volumes indicated for 384-well plates.

[1] = test system: anti-histamine antibody D22.12; assay: Displacement of FITC-histamine binding to the anti-histamine antibody by competitor ligand; set-up: species or system mice
Experimental: Triplicate determinations in a 96-well plate were performed as described in the Methods, with 6 nM FITC-histamine, 50 nM anti-histamine antibody, and the indicated concentration of competitor ligand.
as §1
We first determined the affinity of the probe for the antibody and the specificity of the interaction, both of which are crucial to constructing a robust assay in a competitive mode. […] The probe concentration was held at 6 nM and the antibody concentration varied over approximately 3 logs. […] Probe and antibody concentrations were held constant at 6 and 50 nM, respectively, while the concentrations of histamine and histidine were varied as shown.

HDC = biological target: T2, HDC (Mus musculus, UniProt P23738); settings: Watabe et al 1992; read-out: Reported Km; cited from earlier work
T2 sequence (P23738 1-662): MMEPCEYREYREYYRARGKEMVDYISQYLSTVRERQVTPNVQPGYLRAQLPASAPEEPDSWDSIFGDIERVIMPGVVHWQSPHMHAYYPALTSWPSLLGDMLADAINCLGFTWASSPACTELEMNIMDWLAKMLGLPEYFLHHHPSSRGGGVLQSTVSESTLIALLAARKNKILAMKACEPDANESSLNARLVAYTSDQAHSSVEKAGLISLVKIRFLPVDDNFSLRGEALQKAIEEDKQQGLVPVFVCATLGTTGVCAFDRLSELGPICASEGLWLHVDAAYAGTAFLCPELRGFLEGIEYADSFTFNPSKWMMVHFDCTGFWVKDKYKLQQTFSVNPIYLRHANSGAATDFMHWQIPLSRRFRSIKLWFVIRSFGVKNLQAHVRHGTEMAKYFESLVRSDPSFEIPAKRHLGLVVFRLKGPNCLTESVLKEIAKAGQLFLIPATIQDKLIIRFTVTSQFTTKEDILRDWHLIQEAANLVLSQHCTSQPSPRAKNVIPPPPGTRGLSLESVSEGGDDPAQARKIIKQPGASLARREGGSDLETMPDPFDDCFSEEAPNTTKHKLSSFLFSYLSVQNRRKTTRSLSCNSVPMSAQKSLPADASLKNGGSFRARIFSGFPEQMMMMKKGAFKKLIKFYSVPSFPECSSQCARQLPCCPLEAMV

[2] = biological target: anti-histamine antibody D22.12; settings: read-out: Kd (dissociation constant) of probe for antibody; FITC-histamine at 6 nM, antibody concentration varied over approximately 3 logs
Experimental: as §1
We first determined the affinity of the probe for the antibody and the specificity of the interaction, both of which are crucial to constructing a robust assay in a competitive mode. […] The probe concentration was held at 6 nM and the antibody concentration varied over approximately 3 logs. […]

Molecule: COC(=O)C(N)Cc1c[nH]cn1 (stereo not shown) [methyl ester histidine]
- IC50 (human HDC): 7.7 µM

Molecule: N[C@@H](Cc1c[nH]cn1)C(=O)O [Histidine, L-Histidine]
- Competition with FITC-histamine for binding to the antibody ([1]; 6 nM FITC-histamine, 50 nM antibody, over the 5 log range examined): unable to compete
- Km (HDC): 200 to 400 µM

Molecule: NCCc1c[nH]cn1 [Histamine, histamine]
- IC50 ([1]; 6 nM FITC-histamine, 50 nM anti-histamine antibody, read-out: IC50 for competition with the probe for antibody binding): 135 µM
- Selectivity for histamine over histidine ([1]; FP assay): > 100 fold

Next, values leading:

- IC50 (human HDC): 1.4 µM
Molecule: N[C@@](CF)(Cc1cnc[nH]1)C(=O)O [α-fluoromethyl histidine]

- Kd [2]: 0.0039 µM
Molecule: N-[3′,6′-dihydroxy-3-oxospiro[isobenzofuran-[(3H), 9′-[9H]xanthene-5(or 6)-yl]-N′-[2-(1H-imidazol-4-yl)ethyl]-2,4-dimethylthiourea, disodium salt [FITC-histamine]
